The target of assay [1] is c-KIT kinase (Homo sapiens (Human), UniProt P10721). Put plainly: c-KIT kinase assay (radiometric). It is filed as biochemical. A digest of the protocol:
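Recombinant c-Kit (20 ng) with 2 μg Poly-(Glu4:Tyr1) in MOPS pH 7.0 buffer with MgCl2/MnCl2, 10 μM ATP plus [^33P]-ATP, 4% DMSO final, 60 min at 30° C. Stopped with phosphoric acid, filter-captured and scintillation counted; IC50 from curve fit.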

The subject of assay [2] is THP-1 human acute monocytic leukemia cell harboring NRAS G12D mutation. Put plainly: THP-1 cell proliferation assay (counter screen, CellTiter-96). It counts as cell-based. The following applies: Cytotoxicity, THP-1 cells (counter screen), 72 hours. A digest of the protocol:
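THP-1 cells, RTK-independent owing to NRAS G12D, seeded at 5000/well, incubated overnight at 37 °C/5% CO2, then exposed to increasing compound concentrations for 72 h. CellTiter96 AQueous One reagent added for 4 h; viability from absorbance at 490 nm.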
(A counterscreen serves to expose hits that act by an unwanted route or on another target.)

In assay [3] the test system is CSF-1-dependent M-NFS-60 mouse myeloid leukemia cell. Put plainly: M-NFS-60 cell proliferation assay (CellTiter-96). It counts as cell-based. The following applies: Cytotoxicity, M-NFS-60 cells, 72 hours. The method in brief:
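CSF-1-dependent M-NFS-60 cells seeded at 2000 cells/well, settled overnight at 37 °C, 5% CO2, then exposed to increasing compound concentrations for 72 h. Viability read by CellTiter 96 AQueous One reagent (4 h) at 490 nm absorbance.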

Assay [4] has as its target CSF-1R kinase (Homo sapiens (Human), UniProt P07333). Put plainly: CSF-1R kinase assay (AlphaScreen). It counts as biochemical. The following applies: class symbol. The protocol: Inhibition of CSF-1R kinase activity by a test compound disclosed herein was estimated by AlphaScreen (PerkinElmer). […] Reactions were incubated at 30° C. for 45 min and stopped by adding 5 μL of 50 mM EDTA. Analysis of resulting product using an AlphaScreen kit, and counted with Enspire Alpha (PerkinElmer). […] The IC50 values of quinoxaline compounds of this invention against CSF-1R kinase were determined using the GraphPad Prism 5 software.
(Bead proximity is the source of the signal in Alpha formats.)

The test system of assay [5] is MV4-11 human acute myeloid leukemia cell with FLT3-ITD mutation. Description: MV4-11 cell proliferation assay (CellTiter-96). It is filed as cell-based. The following applies: Cytotoxicity, MV4-11 cells, 72 hours. A digest of the protocol:
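MV4-11 cells (FLT3-ITD, FLT3-dependent growth) seeded at 6500 cells/well, incubated overnight at 37° C., 5% CO2, then exposed to increasing compound concentrations for 72 hours. Viability read by CellTiter96 AQueous One reagent (4 hours), absorbance at 490 nm.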

Assay [6] concerns the target PDGFRβ kinase (Homo sapiens (Human), UniProt P09619). Description: PDGFRβ kinase assay (radiometric). It is filed as biochemical. The following applies: bound. A digest of the protocol: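 Radiometric assay: recombinant PDGFRβ with poly(Glu4:Tyr1) in MOPS pH 7.0 buffer containing Mg2+/Mn2+, 10 μM ATP plus [33P]-ATP, and compound at 4% DMSO final. Incubated 60 min at 30° C, stopped with phosphoric acid, filter-captured and scintillation-counted. IC50 from curve fitting.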

Assay [7] has as its system Kasumi-1 human acute myeloid leukemia cell with c-KIT N822K activating mutation. Description: Kasumi-1 cell proliferation assay (CellTiter-96). It counts as cell-based. The following applies: Cytotoxicity, Kasumi-1 cells, 72 hours. The method in brief:
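Kasumi-1 cells, seeded at 64000 cells/well and incubated overnight at 37 °C, were exposed to increasing compound concentrations for 72 h. Viability was measured by CellTiter96 AQueous One reagent (4 h) and absorbance at 490 nm.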

In assay [8] the test system is osteoclast precursors (osteoclast differentiation). Put plainly: Osteoclast tartrate-resistant acid phosphatase assay. It is filed as cell-based. The following applies: 168 h, at 1 μM treatment, 7 days, RANKL and M-CSF, read-out: inhibition activity against osteoclast differentiation. The method in brief: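 Differentiation inhibition was scored at 1 μM compound in duplicate, using supernatant TRAP activity read at 550 nm with an acid phosphatase kit.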

In assay [9] the target is FLT3 kinase (Homo sapiens (Human), UniProt P36888). Description: FLT3 kinase assay (radiometric). It is filed as biochemical. The following applies: bound. A digest of the protocol:
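Recombinant FLT3 (5 ng) phosphorylating poly(Glu4:Tyr1) (2 μg) with 10 μM ATP plus [^33P]-ATP in MOPS pH 7.0 buffer, 4% DMSO final, 60 min at 30° C. Reaction stopped with phosphoric acid, filter-captured and scintillation-counted; IC50 derived from dose-response.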

For orientation: IC50 means the concentration needed to halve the response being measured. One may read the inhibition as the share of the control response that was lost under treatment.

PDGFRβ kinase, sequence (P09619 33-1106): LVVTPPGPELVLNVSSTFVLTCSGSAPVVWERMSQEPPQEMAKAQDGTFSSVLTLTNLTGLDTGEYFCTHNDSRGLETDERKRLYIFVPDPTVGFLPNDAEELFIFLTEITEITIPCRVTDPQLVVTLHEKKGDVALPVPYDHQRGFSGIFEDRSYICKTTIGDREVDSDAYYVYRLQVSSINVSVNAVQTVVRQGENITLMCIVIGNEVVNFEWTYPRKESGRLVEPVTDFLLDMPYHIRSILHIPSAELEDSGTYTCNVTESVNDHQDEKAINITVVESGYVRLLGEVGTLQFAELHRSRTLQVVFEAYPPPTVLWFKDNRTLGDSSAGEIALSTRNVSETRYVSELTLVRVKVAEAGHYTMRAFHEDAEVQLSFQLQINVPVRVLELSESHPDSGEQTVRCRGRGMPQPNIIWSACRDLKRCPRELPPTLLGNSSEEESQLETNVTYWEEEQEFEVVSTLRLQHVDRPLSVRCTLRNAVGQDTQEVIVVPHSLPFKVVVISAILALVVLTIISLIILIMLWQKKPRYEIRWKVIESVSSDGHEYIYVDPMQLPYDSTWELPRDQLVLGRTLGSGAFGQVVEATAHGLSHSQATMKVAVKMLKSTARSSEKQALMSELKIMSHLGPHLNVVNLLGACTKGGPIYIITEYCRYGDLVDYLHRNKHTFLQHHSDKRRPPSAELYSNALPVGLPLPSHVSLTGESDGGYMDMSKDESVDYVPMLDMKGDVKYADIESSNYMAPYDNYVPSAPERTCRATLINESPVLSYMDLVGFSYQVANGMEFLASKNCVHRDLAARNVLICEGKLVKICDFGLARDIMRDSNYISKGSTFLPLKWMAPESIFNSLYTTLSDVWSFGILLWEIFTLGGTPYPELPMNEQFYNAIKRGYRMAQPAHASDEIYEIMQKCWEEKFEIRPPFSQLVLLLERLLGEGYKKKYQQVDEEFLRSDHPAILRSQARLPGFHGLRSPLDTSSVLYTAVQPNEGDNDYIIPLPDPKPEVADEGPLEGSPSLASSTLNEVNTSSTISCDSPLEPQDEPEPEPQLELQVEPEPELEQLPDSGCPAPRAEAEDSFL
c-KIT kinase, sequence (P10721 26-976): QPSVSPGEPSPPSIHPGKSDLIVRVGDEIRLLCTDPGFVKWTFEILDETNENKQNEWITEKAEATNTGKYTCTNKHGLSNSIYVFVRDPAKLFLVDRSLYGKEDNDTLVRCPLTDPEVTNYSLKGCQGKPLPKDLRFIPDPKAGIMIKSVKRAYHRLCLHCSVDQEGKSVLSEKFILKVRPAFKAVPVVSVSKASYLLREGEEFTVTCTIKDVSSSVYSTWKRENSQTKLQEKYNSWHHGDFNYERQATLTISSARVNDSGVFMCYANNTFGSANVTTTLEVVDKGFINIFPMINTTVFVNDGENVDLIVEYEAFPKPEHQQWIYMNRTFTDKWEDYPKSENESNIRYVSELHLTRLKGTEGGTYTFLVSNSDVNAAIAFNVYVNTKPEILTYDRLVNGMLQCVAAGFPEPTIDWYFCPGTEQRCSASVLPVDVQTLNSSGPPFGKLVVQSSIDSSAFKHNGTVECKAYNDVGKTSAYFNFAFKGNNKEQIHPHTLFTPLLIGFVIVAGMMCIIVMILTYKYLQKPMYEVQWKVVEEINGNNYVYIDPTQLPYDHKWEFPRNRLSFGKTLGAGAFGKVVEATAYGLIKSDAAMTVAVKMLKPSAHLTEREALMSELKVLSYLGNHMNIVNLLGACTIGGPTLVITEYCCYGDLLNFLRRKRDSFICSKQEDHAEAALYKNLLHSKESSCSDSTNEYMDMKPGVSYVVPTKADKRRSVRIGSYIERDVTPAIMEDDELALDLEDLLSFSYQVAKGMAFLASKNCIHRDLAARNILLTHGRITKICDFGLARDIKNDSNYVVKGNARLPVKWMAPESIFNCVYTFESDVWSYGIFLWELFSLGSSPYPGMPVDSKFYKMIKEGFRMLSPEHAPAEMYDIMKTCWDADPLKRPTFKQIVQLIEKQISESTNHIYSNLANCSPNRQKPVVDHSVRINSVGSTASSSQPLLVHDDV
FLT3 kinase, sequence (P36888 27-993): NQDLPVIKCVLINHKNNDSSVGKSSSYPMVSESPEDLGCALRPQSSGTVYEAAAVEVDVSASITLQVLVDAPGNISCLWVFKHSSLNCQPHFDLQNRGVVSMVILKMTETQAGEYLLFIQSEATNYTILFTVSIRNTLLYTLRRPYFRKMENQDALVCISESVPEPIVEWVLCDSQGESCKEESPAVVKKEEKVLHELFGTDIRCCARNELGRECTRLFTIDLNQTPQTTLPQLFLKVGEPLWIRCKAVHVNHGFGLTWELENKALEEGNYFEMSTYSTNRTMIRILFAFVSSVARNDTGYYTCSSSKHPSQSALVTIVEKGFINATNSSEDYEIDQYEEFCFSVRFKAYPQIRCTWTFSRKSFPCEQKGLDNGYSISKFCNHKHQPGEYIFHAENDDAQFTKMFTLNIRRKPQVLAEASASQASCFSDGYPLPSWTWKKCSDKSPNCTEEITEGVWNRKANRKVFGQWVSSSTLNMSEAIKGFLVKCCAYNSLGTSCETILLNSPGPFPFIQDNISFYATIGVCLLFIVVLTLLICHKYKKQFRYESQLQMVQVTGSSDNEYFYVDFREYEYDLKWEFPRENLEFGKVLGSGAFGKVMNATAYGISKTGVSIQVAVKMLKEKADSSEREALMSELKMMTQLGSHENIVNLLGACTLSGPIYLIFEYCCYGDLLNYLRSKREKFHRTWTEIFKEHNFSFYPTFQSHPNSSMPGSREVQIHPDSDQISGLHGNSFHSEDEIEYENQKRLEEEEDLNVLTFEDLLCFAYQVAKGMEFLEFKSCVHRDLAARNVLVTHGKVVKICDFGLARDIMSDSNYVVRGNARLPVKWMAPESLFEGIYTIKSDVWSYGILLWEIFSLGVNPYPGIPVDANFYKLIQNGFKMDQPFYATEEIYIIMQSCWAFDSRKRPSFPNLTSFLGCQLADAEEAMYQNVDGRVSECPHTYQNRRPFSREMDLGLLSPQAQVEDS
CSF-1R kinase, sequence (P07333 20-972): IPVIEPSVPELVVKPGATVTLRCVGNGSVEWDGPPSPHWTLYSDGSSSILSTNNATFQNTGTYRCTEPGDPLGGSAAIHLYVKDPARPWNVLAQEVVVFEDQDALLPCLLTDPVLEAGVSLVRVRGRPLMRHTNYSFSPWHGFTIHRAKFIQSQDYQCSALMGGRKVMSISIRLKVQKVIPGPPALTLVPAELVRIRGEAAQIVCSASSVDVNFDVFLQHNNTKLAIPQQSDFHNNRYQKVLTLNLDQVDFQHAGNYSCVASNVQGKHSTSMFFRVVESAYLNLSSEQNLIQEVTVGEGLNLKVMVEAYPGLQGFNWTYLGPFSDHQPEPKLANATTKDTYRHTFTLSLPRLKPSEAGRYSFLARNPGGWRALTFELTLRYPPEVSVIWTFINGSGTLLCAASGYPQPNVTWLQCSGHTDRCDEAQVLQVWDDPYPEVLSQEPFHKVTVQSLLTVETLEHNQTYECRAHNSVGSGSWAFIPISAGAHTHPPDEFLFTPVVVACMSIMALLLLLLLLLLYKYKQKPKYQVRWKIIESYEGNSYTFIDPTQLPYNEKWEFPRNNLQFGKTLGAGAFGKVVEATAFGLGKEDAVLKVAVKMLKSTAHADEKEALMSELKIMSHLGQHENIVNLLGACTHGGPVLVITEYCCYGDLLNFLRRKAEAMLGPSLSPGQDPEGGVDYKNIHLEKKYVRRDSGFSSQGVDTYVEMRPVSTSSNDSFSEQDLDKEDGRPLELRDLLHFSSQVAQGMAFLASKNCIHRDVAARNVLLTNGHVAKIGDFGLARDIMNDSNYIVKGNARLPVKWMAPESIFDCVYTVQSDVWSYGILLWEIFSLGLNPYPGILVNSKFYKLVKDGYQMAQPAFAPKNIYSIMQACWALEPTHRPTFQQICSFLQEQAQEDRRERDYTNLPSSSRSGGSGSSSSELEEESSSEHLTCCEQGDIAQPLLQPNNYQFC

Take `COc1ccc(COc2ccc(Nc3ccc4ncc(N5CCOCC5)nc4c3C#N)cc2OC)cc1C#N` [Example 96, 6-((4-((3-cyano-4-methoxybenzyl)oxy)-3-methoxy-phenyl)amino)-3-morpholinoquinoxaline-5-carbonitrile]: the 50% inhibitory concentration (IC50) was 100 to 300 nM in [1] (class symbol); over 10000 nM in assay [2]; under 300 nM in assay [3]; under 100 nM in assay [4]; 1000 to 10000 nM in assay [5]; over 1000 nM in assay [6]. The values for the IC50 in [7] and in assay [9] were over 10000 nM and over 1000 nM, respectively. Besides, the inhibition at 1 µM in assay [8] was over 50%.

For the compound `COCCN1CCN(c2cnc3ccc(Nc4ccc(OCc5ccc(OC)nc5)c(OC)c4)c(C#N)c3n2)CC1` [Example 97, 6-((3-methoxy-4-((6-methoxypyridin-3-yl)methoxy)phenyl)amino)-3-(4-(2-methoxyethyl)piperazin-1-yl)quinoxaline-5-carbonitrile], the IC50 is 100 to 300 nM in assay [1] (class symbol); over 10000 nM in assay [2]; under 300 nM in [3]; under 100 nM in assay [4]; 1000 to 10000 nM in [5]; over 1000 nM in assay [6]. Moreover, the IC50 is 300 to 1000 nM in assay [7] and over 1000 nM in assay [9]. Besides, the inhibition at 1 µM in assay [8] is over 50%.

Consider `CCCc1ccc(COc2ccc(Nc3ccc4ncc(N5CCOCC5)nc4c3C#N)cc2OC)cn1` [Example 98, 6-((3-methoxy-4-((6-propylpyridin-3-yl)methoxy)phenyl)amino)-3-morpholinoquinoxaline-5-carbonitrile], for which the IC50 in assay [1] (class symbol) is under 100 nM; in assay [2], over 10000 nM; in [3], under 300 nM; in assay [4], under 100 nM; in [5], 1000 to 10000 nM; in assay [6], over 1000 nM. Further, the IC50 in assay [7] is under 300 nM; in assay [9] it was over 1000 nM. In addition, the inhibition at 1 µM in [8] is over 50%.

`COc1cc(Nc2ccc3ncc(N4CCOCC4)nc3c2C#N)ccc1OCc1ccc(F)c(F)c1` [Example 99, 6-((4-((3,4-difluorobenzyl)oxy)-3-methoxyphenyl)amino)-3-morpholinoquinoxaline-5-carbonitrile]: the IC50 was over 1000 nM in [1] (bound); over 10000 nM in [2]; under 300 nM in [3]; under 100 nM in assay [4]; over 10000 nM in assay [5]; over 1000 nM in assay [6]. For the same compound, the IC50 in [7] is over 10000 nM; in assay [9] it was over 1000 nM. Further, the inhibition at 1 µM in assay [8] is over 50%.

Turning to `COCCN1CCN(c2cnc3ccc(Nc4ccc(OCc5ccc(C)nc5)c(OC)c4)c(C#N)c3n2)CC1` [Example 100, 6-((3-methoxy-4-((6-methylpyridin-3-yl)methoxy)phenyl)amino)-3-(4-(2-methoxyethyl)piperazin-1-yl)quinoxaline-5-carbonitrile], the concentration for half-maximal inhibition (IC50) is 100 to 300 nM in [1] (class symbol); over 10000 nM in assay [2]; under 300 nM in assay [3]; under 100 nM in assay [4]; 1000 to 10000 nM in assay [5]; over 1000 nM in assay [6]. Further, the IC50 in assay [7] is 300 to 1000 nM; in [9], over 1000 nM. The inhibition at 1 µM in [8] was over 50%.

For `CCc1ccc(COc2ccc(Nc3ccc4ncc(N5CCOCC5)nc4c3C#N)cc2OC)cn1` [Example 101, 6-((4-((6-ethylpyridin-3-yl)methoxy)-3-methoxyphenyl)amino)-3-morpholinoquinoxaline-5-carbonitrile], the IC50 in assay [1] (class symbol) was under 100 nM; in [2], over 10000 nM; in assay [3], under 300 nM; in assay [4], under 100 nM; in assay [5] it was 1000 to 10000 nM; in assay [6], over 1000 nM. For the same compound, the half-inhibitory concentration (IC50) in [7] is under 300 nM; in assay [9] it was over 1000 nM. In addition, the inhibition at 1 µM in assay [8] was over 50%.

For `COc1ccc(COc2ccc(Nc3ccc4ncc(N5CCC(N6CCOCC6)CC5)nc4c3C#N)cc2OC)cn1` [Example 102, 6-((3-methoxy-4-((6-methoxypyridin-3-yl)methoxy)phenyl)amino)-3-(4-morpholinopiperidin-1-yl)quinoxaline-5-carbonitrile], the IC50 in assay [1] (class symbol) is 100 to 300 nM; in assay [2] it was over 10000 nM; in [3] it was under 300 nM; in [4], under 100 nM; in [5], over 10000 nM; in assay [6], over 1000 nM. The 50% inhibitory concentration (IC50) in assay [7] was under 300 nM; in assay [9], over 1000 nM. Besides, the inhibition at 1 µM in [8] is over 50%.

As for `COc1cc(Nc2ccc3ncc(N4CCOCC4)nc3c2C#N)ccc1OCc1ccc(C(C)C)nc1` [Example 103, 6-((4-((6-isopropylpyridin-3-yl)methoxy)-3-methoxyphenyl)amino)-3-morpholinoquinoxaline-5-carbonitrile], the IC50 is under 100 nM in assay [1] (class symbol); over 10000 nM in assay [2]; under 300 nM in assay [3]; under 100 nM in assay [4]; 1000 to 10000 nM in [5]; over 1000 nM in assay [6]. Moreover, the IC50 in assay [7] is under 300 nM; in [9], over 1000 nM. The inhibition at 1 µM in assay [8] is over 50%.

On to `COc1cc(Nc2ccc3ncc(N4CCOCC4)nc3c2C#N)ccc1OCc1cnn(C)c1` [Example 105, 6-((3-methoxy-4-((1-methyl-1H-pyrazol-4-yl)methoxy)phenyl)amino)-3-morpholinoquinoxaline-5-carbonitrile], for which the IC50 in assay [1] (class symbol) is under 100 nM; in assay [2], over 10000 nM; in assay [3] it was under 300 nM; in assay [4], under 100 nM; in [5], 1000 to 10000 nM; in [6], over 1000 nM. Also, the IC50 was 300 to 1000 nM in assay [7] and over 1000 nM in assay [9]. Also, the inhibition at 1 µM in assay [8] is over 50%.

With `C=C(C)c1cnc2ccc(Nc3ccc(OCc4ccc(OC)cc4)c(OC)c3)cc2n1` [Example 106, N-(3-methoxy-4-((4-methoxybenzyl)oxy)phenyl)-3-(prop-1-en-2-yl)quinoxalin-6-amine], the IC50 in assay [1] (class symbol) was 300 to 1000 nM; in assay [2] it was over 10000 nM; in [3] it was 300 to 1000 nM; in [4], under 100 nM; in assay [5], over 10000 nM; in assay [6] it was over 1000 nM. Further, the IC50 was 1000 to 10000 nM in assay [7] and over 1000 nM in assay [9]. Besides, the inhibition at 1 µM in assay [8] is over 50%.

Consider `COCc1ccc(COc2ccc(Nc3ccc4ncc(N5CCOCC5)nc4c3C#N)cc2OC)cn1` [Example 107, 6-((3-methoxy-4-((6-(methoxymethyl)pyridin-3-yl)methoxy)phenyl)amino)-3-morpholinoquinoxaline-5-carbonitrile], for which the half-maximal inhibitory concentration (IC50) was 100 to 300 nM in assay [1] (class symbol); over 10000 nM in assay [2]; under 300 nM in assay [3]; under 100 nM in assay [4]; 1000 to 10000 nM in assay [5]; over 1000 nM in [6]. The half-inhibitory concentration (IC50) in assay [7] was 300 to 1000 nM; in [9], over 1000 nM. For the same compound, in assay [8], the inhibition at 1 µM was over 50%.

As for `C=C(C)c1cnc2ccc(Nc3ccc(OCc4ccc(OC)cc4)c(OC)c3)c(C#N)c2n1` [Example 108, 6-((3-methoxy-4-((4-methoxybenzyl)oxy)phenyl)amino)-3-(prop-1-en-2-yl)quinoxaline-5-carbonitrile], the IC50 was over 1000 nM in [1] (bound); over 10000 nM in [2]; 1000 to 10000 nM in assay [3]; under 100 nM in assay [4]; over 10000 nM in assay [5]; over 1000 nM in assay [6]. Moreover, the IC50 in assay [7] is over 10000 nM; in assay [9], over 1000 nM. In addition, the inhibition at 1 µM in assay [8] was over 50%.
